From the supplement of paper PMC5579334

What was measured:
HS-PSS [1] = assay: relative IC50 (inflection point of fitted dose-response curve, CellTox-Green cytotoxicity, 72 h; top asymptote may be below 50%); higher = less potent
In short: (§1)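 MPNST cell lines and primary human Schwann cells were incubated 72 h at 37 °C in 384-well plates holding five 10-fold compound dilutions. CellTox-Green was added before seeding at a final 1:1000 dilution and reported fluorescence from DNA released by disrupted cells. Signals were scaled to vehicle and positive-control wells, and cultures failing plate quality control were dropped. Drug sensitivity score and relative IC50 come from four-parameter logistic fits, with IC50 censored at the top concentration.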

HSC1 [2] = assay: as above
In short: as §1

HSC2 [3] = assay: as above
In short: as §1

S1507-2 [4] = assay: as above
In short: as §1

ST8814 [5] = assay: as above
In short: as §1

STS26T [6] = assay: as above
In short: as §1

HS-PSS [7] = assay: relative IC50 (inflection point of fitted dose-response curve, CellTiter-Glo viability, 72 h; top asymptote may be below 50% inhibition); higher = less potent
In short: (§2)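 Viability was scored by CellTiter-Glo ATP luminescence, scaled from vehicle to positive-control wells, with duplicates averaged where present. The cells, MPNST lines and primary human Schwann cells at 750–1000 per well, sat 72 h at 37 °C, 5% CO2, in 384-well plates preprinted with each compound at five concentrations in 10-fold steps. Four-parameter logistic fits were run on the data. These fits give drug sensitivity score and relative IC50 censored at the top concentration, and percent inhibition is reported at the top concentration.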

HS-Sch-2 = assay: as above
In short: as §2

HSC1 [8] = assay: as above
In short: as §2

HSC2 [9] = assay: as above
In short: as §2

S1507-2 [10] = assay: as above
In short: as §2

S462 = assay: as above
In short: as §2

ST8814 [11] = assay: as above
In short: as §2

STS26T [12] = assay: as above
In short: as §2

YST-1 = assay: as above
In short: as §2

| Compound | relative IC50 (HS-PSS [1]) [µM] | relative IC50 (HSC1 [2]) [nM] | relative IC50 (HSC2 [3]) [nM] | relative IC50 (S1507-2 [4]) [nM] | relative IC50 (ST8814 [5]) [nM] | relative IC50 (STS26T [6]) [nM] | relative IC50 (HS-PSS [7]) [nM] | relative IC50 (HS-Sch-2) [nM] | relative IC50 (HSC1 [8]) [nM] | relative IC50 (HSC2 [9]) [nM] | relative IC50 (S1507-2 [10]) [nM] | relative IC50 (S462) [nM] | relative IC50 (ST8814 [11]) [nM] | relative IC50 (STS26T [12]) [nM] | relative IC50 (YST-1) [nM] |
| --- | --- | --- | --- | --- | --- | --- | --- | --- | --- | --- | --- | --- | --- | --- | --- |
| c1ccc([C@H]2CN3CCSC3=N2)cc1 [Levamisole] | > 10 | > 10000 | > 10000 | > 10000 | > 10000 | > 10000 | > 10000 | > 10000 | > 10000 | > 10000 | > 10000 | > 10000 | > 10000 | > 10000 | > 10000 |
| O=[N+]([O-])c1ccc2c(c1)S(=O)(=O)C=C2 [Stattic] | 2.87 | 2450 | 7900 | 15900 | 4720 | 2270 | 1390 | 1420 | 1880 | 3040 | 9570 | 4990 | 2410 | 2990 | 1740 |
| COc1cc([C@@H]2c3cc4c(cc3[C@@H](O[C@@H]3O[C@@H]5CO[C@@H](c6cccs6)O[C@H]5[C@H](O)[C@H]3O)[C@H]3COC(=O)[C@H]23)OCO4)cc(OC)c1O [Teniposide] | 3.01 | 1150 | 1430 | 1410 | 219 | 266 | 1240 | 482 | 68.8 | 88.5 | 314 | 112 | 193 | 227 | 50.1 |
| CCCCCCCCc1ccc(CCC(N)(CO)CO)cc1 [Fingolimod] | 3.16 | 1950 | 2220 | 1600 | 3430 | 3340 | 1890 | 2480 | 2150 | 2340 | 2030 | 3070 | 2770 | 2620 | 2940 |
| Cn1c(=O)n(-c2ccc(C(C)(C)C#N)cc2)c2c3cc(-c4cnc5ccccc5c4)ccc3ncc21 [Dactolisib] |  | > 1000 | > 1000 | > 1000 | > 1000 | > 1000 | 15.7 | 12.1 | 8.56 | 8.32 | 11 | 14.8 | 15.3 | 7.77 | 11.9 |
| C=CCn1c(=O)c2cnc(Nc3ccc(N4CCN(C)CC4)cc3)nc2n1-c1cccc(C(C)(C)O)n1 [MK1775] |  | 1210 | 1510 | 196 | 375 | 167 | 547 | 84.1 | 224 | 225 | 231 | 111 | 264 | 361 | 326 |
